Data on 116 sequences can be found in the OligoGym collection.

Several values for one entry are separate records, joined by “and”; a condition that tells them apart may be missing. Identical values can stand only once. These antisense oligonucleotides have a phosphorothioate backbone; sugars and methylation of C are not fully specified.
Note: test concentration or dose not given here.

One data set has as its target SELE. To be noted: ASO.
In turn, CGTTCTGCACTTACCGTTTTG came in with a remaining target (mRNA or protein) (fraction of control) of 0.52.
Same read-out and setting: under CAGCCAAGAACAGCT stands 0.5.
Still for that read-out and setting: in the case of ACAGGATCTCTCAGGTGGGT it was 0.2; in that of GGGGAGATAAAACACAAAATG, 0.79.
Still for that read-out and setting: under CTGTGAAGCAATCATGAC stands 0.96; under GAGTTCTTTTCACCC, 0.63; under TTCCCCAGATGCACCTGTTT, 0.02.
On to GGAATGCAAAGCACATCCAT, for which the remaining target (mRNA or protein) (fraction of control) amounted to 0.71.
Same read-out and setting: under ACGTTTGGCCTCATGGAAGT stands 0.35; under CAGCCAAGAACAGCTGG, 0.62.
On the same count and under the same terms, under CCCAAAGGTTTAGGCTTG stands 0.61; under TCCTCTCTTCCAGAGCACCC, not below 1; under TGAAGTCAGCCAAGAACAGCT, 0.08.
Regarding ACCACACTGGTATTTCACAC, the remaining target (mRNA or protein) (fraction of control) turned out to be 0.67.
Regarding TGAAGCAATCATGACTTCAAG, the remaining target (mRNA or protein) (fraction of control) was ≥ 1 and 0.51.
Same read-out and setting: in the case of GTATGGAAGATTATAATATAT it was 0.59.
The same measure, in the same setting: in the case of CTGCTGCCTCTGTCTCAGGT it was 0.07; in that of ACCTCTGCTGTTCTGATCCT, 0.17.
Same read-out and setting: under GAAATACTTTCCTCCGTTTTG stands not below 1.
As for CCAAAGTGAGAGCTGAGAGA, the remaining target (mRNA or protein) (fraction of control) was 0.36.
The sequence CTGATTCAAGGCTTTGGCAG displayed a remaining target (mRNA or protein) (fraction of control) of 0.55.
On the same count and under the same terms, in the case of GGCTTGAAATACTTTCCT it was 0.84.
On the same count and under the same terms, in the case of CTTTCCTGGGGAGATAAA it was 0.96; in that of GTTCACAACTGAAAAAGAAAC, 0.51.
On the same count and under the same terms, under CAATCATGACTTCAAGAGTTC stands 0.77.
CCAATCATGACTTCAAGAGTT came in with a remaining target (mRNA or protein) (fraction of control) of 0.32.
Consider AATCATGACTTCAAGAGTTCT, for which the remaining target (mRNA or protein) (fraction of control) is 0.78 and 0.53.
For the sequence GACTTCAAGAGTTCT, the remaining target (mRNA or protein) (fraction of control) was determined as 0.82.
The same measure, in the same setting: in the case of TATAGGAGTTTTGATGTGAA it was 0.74; in that of GTTTAAGGCAGCATCCTAAGA, 0.38; in that of GGGCCAGAGACCCGAGGAGA, 0.46.
On the same count and under the same terms, under GCATGTCACAGCTGTAACAAA stands 0.5.
Same read-out and setting: under GATGTGAAGTCAGCCAA stands 0.51; under GAAATACTTTCCTGGGGAGAT, 0.81.
GACAATATACAAACCTTCCAT showed a remaining target (mRNA or protein) (fraction of control) of 0.65.
Still for that read-out and setting: in the case of GAAGTCAGCCAAGAACAGCT it was 0.5; in that of CACAATCCTTAAGAACTCTTT, 0.31.
On the same count and under the same terms, in the case of TCACCCAAAGGTTTAGGCTTG it was 0.1.

The next data set deals with NSMAF. The conditions noted are these: ASO.
CTTCAGGCTATTGACTAG displayed a remaining target (mRNA or protein) (fraction of control) of 0.46.
In turn, TGTGTGGCCCTGTATTCT returned a remaining target (mRNA or protein) (fraction of control) of 0.38.
The same measure, in the same setting: under GGCTCTATGCTGTTCAAA stands 0.39.
On the same count and under the same terms, under AATCTCTCCTTGGAGTAG stands 0.61.
Same read-out and setting: in the case of TGGAAACACAGGGTACTG it was 0.37.

Another data set addresses IL1R1. To be noted: ASO.
Turning to CCTCCACCCACGCTTATCCA, the remaining target (mRNA or protein) (fraction of control) was determined as 0.29.
Still for that read-out and setting: under GCCACCACAGCCTCTCCCTC stands 0.42; under TCTGGCATTTTCTCATAGTC, 0.75.
As to GAAACAAATAAGTCTGAGTA, the remaining target (mRNA or protein) (fraction of control) was 0.75.
The sequence TGATCCGTGATGCATGCTGT came in with a remaining target (mRNA or protein) (fraction of control) of 0.5.
On the same count and under the same terms, in the case of CCTCCAGGGCTGCGGCGGCT it was 0.75.
The same measure, in the same setting: under AGTCCTCCGTCTCCTGCAAC stands 0.75; under AGTCAAAGGAAGTTCACGGG, 0.5.
CATAACCTGGCCTGCAACGC had a remaining target (mRNA or protein) (fraction of control) of 0.75.
On the same count and under the same terms, in the case of AGATGCCTTGCGTTGGCTGC it was 0.5; in that of CACCGAGGAGCAGGCGCGGC, 0.75; in that of CATTCCTGCCGCTCCCTGGG, 0.75.
The same measure, in the same setting: under AACTTCTCCATGCTACCCGA stands 0.75; under TCTTCAGAGGGTGCGTCTAC, 0.75.
In turn, TCGGCTCCTCCCGGCCGCGC showed a remaining target (mRNA or protein) (fraction of control) of 0.75.
Still for that read-out and setting: under TGTGTCCTGCAATCGGTGGC stands 0.1.
On the same count and under the same terms, in the case of CACTTAGCCGTGCGTTGGTG it was 0.5.
The same measure, in the same setting: in the case of CACTGCAACCTCCGTCTCCC it was 0.75; in that of CGTGCCAGTGTGGAGTGAGG, 0.23.
GCGGGATGACAGAAGAGCGG: the remaining target (mRNA or protein) (fraction of control) turned out to be 0.75.
Same read-out and setting: under CATTCCATGAACTCTGCAAG stands 0.75; under CTTGGAGAAGGCCTTGTCTT, 0.75.
The same measure, in the same setting: in the case of CCCTTCCATAAATGAACAGC it was 0.75.
Still for that read-out and setting: in the case of AGTAACACTTTCATATTCTT it was 0.75.
In the case of CTTTCATATTCTTCTTGGAG, the remaining target (mRNA or protein) (fraction of control) was 0.75.
Same read-out and setting: in the case of TGGTGACCTCAGGGATAAAG it was 0.75; in that of CGCGCTCGGCTCCTCCCGGC, 0.75; in that of TCTGAGTAACACTTTCAT, 0.75.
Sequence CTCTCCACCGAGGAGCAGGC showed a remaining target (mRNA or protein) (fraction of control) of 0.75.
On the same count and under the same terms, in the case of CCCTTGGGCTGTGGATGACT it was 0.75; in that of GGAACTGCCTTTCGCGGTCT, 0.75.
On the same count and under the same terms, in the case of AGGGCTGCGGCGGCTCCACT it was 0.75.
Take AGTGCTACGGTGCGGGCGCG: the remaining target (mRNA or protein) (fraction of control) was 0.75.
Same read-out and setting: under TACCCGAGAGGCACGTGAGC stands 0.75.
The same measure, in the same setting: in the case of GCAAAGCGGGCCCAGGAGAA it was 0.3.
Sequence GCAACGCCATAAGACAGGAG returned a remaining target (mRNA or protein) (fraction of control) of 0.75.
Still for that read-out and setting: in the case of TGCCTTTCGCGGTCTCGCTC it was 0.75.

A further data set addresses AKT2. The conditions noted are these: ASO.
In turn, ATGATGACTTCCTTTCGC showed a remaining target (mRNA or protein) (fraction of control) of 0.43.
Same read-out and setting: in the case of CCCGCTCCTCTGTGAAGA it was 0.08.
On the same count and under the same terms, in the case of AGTTGATGCTGAGGAAGA it was 0.51; in that of ACCAGGATGACTTTGCCA, 0.25.
The sequence TGGACAGGGCACAGTCTC gave a remaining target (mRNA or protein) (fraction of control) of 0.3.
On the same count and under the same terms, in the case of CTACGGAGAAGTTGTTTA it was 0.42; in that of GATGGACTGGGCGGTAAA, 0.22.
With TGTGATTGTGATGGACTG, the remaining target (mRNA or protein) (fraction of control) stood at 0.3.
Still for that read-out and setting: in the case of CCAGCCTTCTTTGATGAC it was 0.25; in that of CAGTCGTGGAGGAGTCAC, 0.42; in that of CCGCATCCACTCCTCCCT, 0.12.
Still for that read-out and setting: in the case of GGGTGCCTGGTGTTCTGG it was 0.3.
Still for that read-out and setting: in the case of CCAATGAAGGAGCCGTCG it was not below 1.
GTCTTGATGTATTCACCA: the remaining target (mRNA or protein) (fraction of control) amounted to 0.52.
Still for that read-out and setting: under GCCTTGCTGACCGCCACT stands 0.18; under CTTGAGGCTGTTGGCGAC, 0.18.
Still for that read-out and setting: in the case of TGGTCACTTTAGCCCGTG it was not below 1.
The same measure, in the same setting: under TGACAGACACCTCATTCA stands 0.15; under CTCCTTGGCATCGCTGGG, 0.29.
For the sequence GAGCCACACTTGTAGTCC, the remaining target (mRNA or protein) (fraction of control) was 0.11.
The same measure, in the same setting: in the case of GAGGCACCGTGGACAGGG it was 0.33; in that of GTGATGGCAGCGAGCGTG, 0.38; in that of ACTGTGTGAGCGACTTCA, 0.38.
Same read-out and setting: under TTCCATCTCCTCAGTCGT stands 0.19.
The same measure, in the same setting: in the case of TGTGGAGCCAGCCTTCTT it was 0.28.
The sequence ATGACAAAGGTGTTGGGT displayed a remaining target (mRNA or protein) (fraction of control) of 0.29.
The sequence CTTTGATGACAGACACCT had a remaining target (mRNA or protein) (fraction of control) of 0.23.
Same read-out and setting: in the case of TCGGTGACTGTGTGAGCG it was 0.34; in that of ATGACCTCCTTGGCATCG, 0.18; in that of GTGAGCGACTTCATCCTT, 0.25.
CAAGGAGTTTGAGATAGT came in with a remaining target (mRNA or protein) (fraction of control) of 0.36.
The same measure, in the same setting: under CGTGCGTCCTCTGCGTGG stands 0.14; under TGGCATTCTGCTACGGAG, 0.18.
Sequence ACTCCATCACAAAGCACA yielded a remaining target (mRNA or protein) (fraction of control) of 0.2.
Same read-out and setting: in the case of CCGCTGCTTGAGGCTGTT it was 0.29.

A further data set addresses ERBB2. The conditions noted are these: ASO.
GGCAGTGTTGGAGGCTGG returned a remaining target (mRNA or protein) (fraction of control) of 0.57.
